From the supplement of paper PMC11061612

Key:
Test in all cases: combination Emax (second highest fraction inhibited in the dose matrix, 72 h); higher = more inhibition; extreme values may be limits of the assay
[1] = tested on: ME-180 (Cervical Carcinoma)
Summary of the method: (§1)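 Cell lines in DMEM/F12 or RPMI with 10% FBS were plated in 1536-well plates, held 24 hours at 37°C, 5% CO2, then given two-drug dose matrices for 72 hours (DMSO typically 0.2%). Viability was read by CellTiter-Glo 2.0 luminescence and scaled as inhibition from 0 (vehicle wells) to 1 (blank wells). Combination Emax is the second-highest inhibition in the matrix; Bliss excess is observed combination effect minus expected EA + EB − EA·EB, EA and EB being single-agent effects.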

[2] = tested on: OACM5-1 (Esophageal Adenocarcinoma)
Summary of the method: as §1

[3] = tested on: CADO-ES1 (Ewing's Sarcoma)
Summary of the method: as §1

COLO-679 (Melanoma) = tested on: COLO-679 (Melanoma)
Summary of the method: as §1

[4] = tested on: MOLT-4 (T-Lymphoblastic Leukemia)
Summary of the method: as §1

[5] = tested on: KGN (Other Solid Carcinomas)
Summary of the method: as §1

[6] = tested on: NCI-H650 (Lung Adenocarcinoma)
Summary of the method: as §1

Hey (Ovarian Carcinoma) = tested on: Hey (Ovarian Carcinoma)
Summary of the method: as §1

EW-1 (Ewing's Sarcoma) = tested on: EW-1 (Ewing's Sarcoma)
Summary of the method: as §1

[7] = tested on: HAL-01 (B-Lymphoblastic Leukemia)
Summary of the method: as §1

[8] = tested on: NCI-H1993 (Lung Adenocarcinoma)
Summary of the method: as §1

[9] = tested on: ML-2 (Acute Myeloid Leukemia)
Summary of the method: as §1

[10] = tested on: A4-Fuk (B-Lymphoblastic Leukemia)
Summary of the method: as §1

[11] = tested on: MV-4-11 (Acute Myeloid Leukemia)
Summary of the method: as §1

[12] = tested on: Mo-T (Other Blood Carcinomas)
Summary of the method: as §1

[13] = tested on: HCC2998 (Colorectal Carcinoma)
Summary of the method: as §1

[14] = tested on: KMRC-1 (Kidney Carcinoma)
Summary of the method: as §1

[15] = tested on: ALL-SIL (T-Lymphoblastic Leukemia)
Summary of the method: as §1

[16] = tested on: KOPN-8 (B-Lymphoblastic Leukemia)
Summary of the method: as §1

[17] = tested on: MDA-MB-453 (Breast Carcinoma)
Summary of the method: as §1

| Structure (SMILES) | combination Emax [1] | combination Emax [2] | combination Emax [3] | combination Emax (COLO-679 (Melanoma)) | combination Emax [4] | combination Emax [5] | combination Emax [6] | combination Emax (Hey (Ovarian Carcinoma)) | combination Emax (EW-1 (Ewing's Sarcoma)) | combination Emax [7] | combination Emax [8] | combination Emax [9] | combination Emax [10] | combination Emax [11] | combination Emax [12] | combination Emax [13] | combination Emax [14] | combination Emax [15] | combination Emax [16] | combination Emax [17] |
| --- | --- | --- | --- | --- | --- | --- | --- | --- | --- | --- | --- | --- | --- | --- | --- | --- | --- | --- | --- | --- |
| Cn1cnc2c(F)c(Nc3ccc(Br)cc3Cl)c(C(=O)NOCCO)cc21 [Selumetinib] + C[C@@H]1COCCN1C2=NC(=NC(=C2)C3(CC3)[S@](=N)(=O)C)C4=C5C=CNC5=NC=C4 [AZD6738] (first compound max 10 µM, 7x7, partner max 10 µM) | 0.465 | 0.612 | 0.822 | 0.82 | 0.991 | 0.808 | 0.619 | 0.748 | 0.892 | 0.976 | 0.795 | 0.982 | 0.836 | 0.97 | 0.362 | 0.899 | 0.373 | 0.934 | 1 | 0.684 |
| CN(CCO)CC[C@H](CSc1ccccc1)Nc1ccc(S(=O)(=O)NC(=O)c2ccc(N3CCC([C@@H](O)c4ccccc4-c4ccc(Cl)cc4)CC3)cc2)cc1S(=O)(=O)C(F)(F)F [AZD4320] + C=CCn1c(=O)c2cnc(Nc3ccc(N4CCN(C)CC4)cc3)nc2n1-c1cccc(C(C)(C)O)n1 [AZD1775] (first compound max 1 µM, partner max 1 µM) | 0.581 | 0.635 | 0.566 | 0.521 | 1 | 0.784 | 0.564 | 0.673 | 1 | 1 | 0.927 | 1 | 0.898 | 1 | 0.984 | 0.899 | 0.278 | 1 | 1 | 0.285 |
| Cn1cnc2c(F)c(Nc3ccc(Br)cc3Cl)c(C(=O)NOCCO)cc21 [Selumetinib] + CC(C)n1c(=O)n(C)c2cnc3cc(F)c(-c4ccc(OCCCN5CCCCC5)nc4)cc3c21 [AZD1390] (first compound max 10 µM, 7x7, partner max 0.3 µM) | 0.209 | 0.209 | 0.175 | 0.796 | 0.348 | 0.341 | 0.243 | 0.549 | 0.159 | 0.48 | 0.627 | 0.78 | 0.404 | 0.711 | 0.246 | 0.719 | 0.165 | 0.25 | 0.596 | 0.171 |
| COc1nnc2ccc(N3CCC(c4ccc(OCCN5CCN(C)C(=O)[C@H]5C)cc4)CC3)nn12 [AZD5153] + Cc1c2c(nn1C)CSCc1cc(n(C)n1)CSc1cc(c3ccccc3c1)OCCCc1c(C(=O)O)n(C)c3c-2c(Cl)ccc13 [AZD5991] (first compound max 1 µM, 7x7, partner max 1 µM) | 0.438 | 0.952 | 0.659 | 0.874 | 0.95 | 0.742 | 0.768 | 0.598 | 0.751 | 0.873 | 0.552 | 1 | 1 | 1 | 0.616 | 1 | 0.322 | 0.984 | 1 | 0.953 |
| Cc1c2c(nn1C)CSCc1cc(n(C)n1)CSc1cc(c3ccccc3c1)OCCCc1c(C(=O)O)n(C)c3c-2c(Cl)ccc13 [AZD5991] + Cc1cc2ncnn2cc1Nc1ncc2c(n1)n(C1CCOCC1)c(=O)n2C [AZD7648] (first compound max 1 µM, 7x7, partner max 10 µM) | 0.338 | 0.923 | 0.893 | 0.259 | 0.429 | 0.563 | 0.203 | 0.316 | 0.421 | 0.704 | 0.492 | 1 | 1 | 1 | 0.262 | 0.899 | 0.203 | 1 | 0.936 | 0.381 |
| Cc1c2c(nn1C)CSCc1cc(n(C)n1)CSc1cc(c3ccccc3c1)OCCCc1c(C(=O)O)n(C)c3c-2c(Cl)ccc13 [AZD5991] + C=CCn1c(=O)c2cnc(Nc3ccc(N4CCN(C)CC4)cc3)nc2n1-c1cccc(C(C)(C)O)n1 [AZD1775] (first compound max 1 µM, partner max 1 µM) | 0.52 | 0.928 | 0.925 | 0.529 | 1 | 0.725 | 0.748 | 0.59 | 0.974 | 0.907 | 0.629 | 1 | 1 | 1 | 0.562 | 0.962 | 0.275 | 1 | 0.998 | 0.4 |
| Cc1c2c(nn1C)CSCc1cc(n(C)n1)CSc1cc(c3ccccc3c1)OCCCc1c(C(=O)O)n(C)c3c-2c(Cl)ccc13 [AZD5991] + C[C@@H]1COCCN1C2=NC(=NC(=C2)C3(CC3)[S@](=N)(=O)C)C4=C5C=CNC5=NC=C4 [AZD6738] (first compound max 1 µM, 7x7, partner max 10 µM) | 0.485 | 0.928 | 0.989 | 0.674 | 1 | 0.772 | 0.352 | 0.806 | 0.965 | 0.987 | 0.517 | 1 | 1 | 1 | 0.483 | 0.994 | 0.549 | 1 | 0.998 | 0.886 |
| CS(=O)(=O)CCNCc1ccc(-c2ccc3ncnc(Nc4ccc(OCc5cccc(F)c5)c(Cl)c4)c3c2)o1 [Lapatinib] + NC1(c2ccc(-c3nc4ccn5c(=O)[nH]nc5c4cc3-c3ccccc3)cc2)CCC1 [MK-2206] (first compound max 10 µM, 7x7, partner max 10 µM) | 0.758 |  |  | 0.618 | 0.938 | 0.85 | 0.31 |  |  | 0.951 | 0.68 | 0.785 | 0.971 | 0.961 | 0.948 |  | 0.792 |  | 0.936 | 0.801 |
| C=CCn1c(=O)c2cnc(Nc3ccc(N4CCN(C)CC4)cc3)nc2n1-c1cccc(C(C)(C)O)n1 [AZD1775] + C1CN(CCC1(C(=O)N[C@@H](CCO)C2=CC=C(C=C2)Cl)N)C3=NC=NC4=C3C=CN4 [Capivasertib] (first compound max 3 µM, partner max 3 µM) | 0.898 | 0.74 | 0.621 | 0.412 | 0.989 | 0.734 | 0.786 | 0.726 | 0.963 | 0.977 | 0.701 | 0.994 | 0.859 |  | 0.894 | 0.831 | 0.593 | 0.936 | 0.968 | 0.859 |
| CCc1c2c(nc3ccc(O)cc13)-c1cc3c(c(=O)n1C2)COC(=O)[C@]3(O)CC [SN-38] + O=C(c1cc(Cc2n[nH]c(=O)c3ccccc23)ccc1F)N1CCN(C(=O)C2CC2)CC1 [Olaparib] (first compound max 0.3 µM, 7x7, partner max 10 µM) | 0.914 | 0.796 | 0.987 | 0.743 | 1 | 0.918 |  | 0.72 | 0.99 | 1 | 0.635 | 1 | 0.96 | 1 | 0.724 |  | 0.318 | 1 | 0.965 | 0.746 |
| CN(C)CCCOc1ccc(-c2ccc3ncc4c(c3c2)n(C2CCOCC2)c(=O)n4C)cn1 [AZD0156] + O=C(c1cc(Cc2n[nH]c(=O)c3ccccc23)ccc1F)N1CCN(C(=O)C2CC2)CC1 [Olaparib] (first compound max 3 µM, partner max 3 µM) | 0.348 | 0.327 | 0.739 | 0.225 | 0.636 | 0.62 | 0.149 | 0.408 | 0.684 | 0.563 | 0.498 | 0.478 | 0.553 |  | 0.402 | 0.257 | 0.151 | 0.175 | 0.78 | 0.286 |
| CC1(C)CCC(CN2CCN(c3ccc(C(=O)NS(=O)(=O)c4ccc(NCC5CCOCC5)c([N+](=O)[O-])c4)c(Oc4cnc5[nH]ccc5c4)c3)CC2)=C(c2ccc(Cl)cc2)C1 [Venetoclax] + CS(=O)(=O)CCNCc1ccc(-c2ccc3ncnc(Nc4ccc(OCc5cccc(F)c5)c(Cl)c4)c3c2)o1 [Lapatinib] (first compound max 1 µM, 7x7, partner max 10 µM) | 0.427 |  |  | 0.0296 | 0.502 | 0.4 |  |  |  | 0.968 | 0.262 | 0.977 | 0.832 | 1 | 0.33 |  | 0.595 |  |  | 0.419 |
| CN(CCO)CC[C@H](CSc1ccccc1)Nc1ccc(S(=O)(=O)NC(=O)c2ccc(N3CCC([C@@H](O)c4ccccc4-c4ccc(Cl)cc4)CC3)cc2)cc1S(=O)(=O)C(F)(F)F [AZD4320] + CS(=O)(=O)CCNCc1ccc(-c2ccc3ncnc(Nc4ccc(OCc5cccc(F)c5)c(Cl)c4)c3c2)o1 [Lapatinib] (first compound max 1 µM, 7x7, partner max 10 µM) | 0.7 |  |  | 0.308 | 1 | 0.494 |  |  |  | 1 | 0.943 | 1 | 0.931 | 1 | 0.959 |  | 0.944 |  |  | 0.548 |
